pIC50: −log10 of the molar value.
Target: human αvβ3 receptor (Homo sapiens, UniProt P05106+P06756)
Assay: Kistrin/Vitronectin Receptor (αvβ3) ELISA test
Type: binding
Conditions: Kistrin-coated plates, 3 hours at ambient temperature, 4B12-HRP detection, read-out: K/VnR IC50
Description: Pharmacological Test: Kistrin/Vitronectin Receptor (αvβ3) ELISA Test Protocol:
96-well MaxiSorp plates are coated overnight at […] with 100 μl of Kistrin at 1 μg/ml (dilution in coating buffer: 0.05M carbonate)/NaOH pH 9.6. The next day, the wells are emptied and the ligands (kistrin) are then fixed (fixation buffers: PBS containing 0.5% BSA (pH=7.4)) for 1 hour at ambient temperature under gentle agitation of 125 rpm. The wells are washed six times (washing buffer: PBS containing 0.05% Tween 20 (pH 7.7) then the following is added per well and in this order:
40 μl of incubation buffer
10 μl of the dilution of the product to be tested (the products are diluted in a 50:50 DMSO/water mixture)
50 μl of human αvβ3 receptor (cf Pytel et al. Methods Enzymol. (1987) 144 (Dilution in incubation buffer, adapted according to the batch of receptor and according to the ligand). The ligand, the αvβ3 receptor and the products to be studied are incubated for 3 hours at ambient temperature with gentle agitation of 125 rpm.
The wells are again washed six times, then incubated for 2 hours at ambient temperature with mild agitation of 125 rpm, in the presence of 100 μl of anti-receptor antibody coupled to a peroxidase (The 4B12-HRP antibody is diluted in incubation buffer (50 mM TRIS pH 7.4; 0.5% BSA; 0.05% Tween 20; 1 mM MnCl2; 50 μM CaCl2; 50 μM MgCl2; 100 mM NaCl). The dilution is to be adapted according to the batch of receptor.
The wells are then washed six times before measurement of the ligand-receptor bond is carried out using a peroxidase developer kit (TBM Microwell Peroxidase Substrate System Kirkegaard; Ref cat 50-76-00).
This kit contains a flask A of substrate (3,3′,5,5′-tetramethylebenzidine at 0.4 g/l) and a flask B (H2O2 to 0.02% in Citrate/Citric acid). Extemporaneously, one volume of A is mixed with one volume of B, then the reaction mixture is distributed at a rate of 100 μl/wells.
The enzymatic reaction develops between 6 to 10 minutes for Kistrin/αvβ3 then its development is stopped by the addition of 100 μl of 1M phosphoric acid. The optical density is determined at 450 nm.
Expression of the Results
The following curve is plotted: the bond percentage as a function of the logarithm of each concentration of the tested product.
For each product IC50 is determined according to the following formula: IC50=(B0+Bmin)/2 B0=Maximum bond in the absence of any product Bmin=Minimum bond in the presence of the highest concentration of the product.

human αvβ3 receptor, sequence (P06756 31-889 limits assumed): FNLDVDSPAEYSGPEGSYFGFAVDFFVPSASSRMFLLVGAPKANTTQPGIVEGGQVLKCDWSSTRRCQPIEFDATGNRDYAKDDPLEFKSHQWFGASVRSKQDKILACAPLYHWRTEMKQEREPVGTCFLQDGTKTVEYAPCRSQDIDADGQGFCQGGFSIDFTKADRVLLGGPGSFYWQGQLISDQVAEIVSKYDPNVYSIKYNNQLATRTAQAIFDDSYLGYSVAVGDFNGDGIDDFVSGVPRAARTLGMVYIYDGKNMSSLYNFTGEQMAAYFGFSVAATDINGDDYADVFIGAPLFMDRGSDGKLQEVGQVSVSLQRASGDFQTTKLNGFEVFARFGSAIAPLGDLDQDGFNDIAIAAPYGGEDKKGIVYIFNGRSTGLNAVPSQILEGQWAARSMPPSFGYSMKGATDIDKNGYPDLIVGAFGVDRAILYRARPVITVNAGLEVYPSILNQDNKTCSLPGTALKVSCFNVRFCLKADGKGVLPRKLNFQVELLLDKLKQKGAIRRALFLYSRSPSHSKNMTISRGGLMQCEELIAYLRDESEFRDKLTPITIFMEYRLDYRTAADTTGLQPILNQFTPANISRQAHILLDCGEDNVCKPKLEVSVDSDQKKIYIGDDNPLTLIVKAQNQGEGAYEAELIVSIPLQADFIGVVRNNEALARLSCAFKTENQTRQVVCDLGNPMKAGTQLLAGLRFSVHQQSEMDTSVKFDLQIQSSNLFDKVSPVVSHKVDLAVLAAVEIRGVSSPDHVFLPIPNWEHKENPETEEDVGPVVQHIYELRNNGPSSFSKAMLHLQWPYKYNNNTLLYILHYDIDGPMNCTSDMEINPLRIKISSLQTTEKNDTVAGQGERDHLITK
human αvβ3 receptor, sequence (P06756 891-1048 limits assumed): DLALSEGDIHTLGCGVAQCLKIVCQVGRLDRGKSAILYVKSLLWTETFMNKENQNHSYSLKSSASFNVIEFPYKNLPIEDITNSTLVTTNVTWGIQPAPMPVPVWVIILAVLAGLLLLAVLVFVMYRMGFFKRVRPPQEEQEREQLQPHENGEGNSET
human αvβ3 receptor, sequence (P05106 27-788): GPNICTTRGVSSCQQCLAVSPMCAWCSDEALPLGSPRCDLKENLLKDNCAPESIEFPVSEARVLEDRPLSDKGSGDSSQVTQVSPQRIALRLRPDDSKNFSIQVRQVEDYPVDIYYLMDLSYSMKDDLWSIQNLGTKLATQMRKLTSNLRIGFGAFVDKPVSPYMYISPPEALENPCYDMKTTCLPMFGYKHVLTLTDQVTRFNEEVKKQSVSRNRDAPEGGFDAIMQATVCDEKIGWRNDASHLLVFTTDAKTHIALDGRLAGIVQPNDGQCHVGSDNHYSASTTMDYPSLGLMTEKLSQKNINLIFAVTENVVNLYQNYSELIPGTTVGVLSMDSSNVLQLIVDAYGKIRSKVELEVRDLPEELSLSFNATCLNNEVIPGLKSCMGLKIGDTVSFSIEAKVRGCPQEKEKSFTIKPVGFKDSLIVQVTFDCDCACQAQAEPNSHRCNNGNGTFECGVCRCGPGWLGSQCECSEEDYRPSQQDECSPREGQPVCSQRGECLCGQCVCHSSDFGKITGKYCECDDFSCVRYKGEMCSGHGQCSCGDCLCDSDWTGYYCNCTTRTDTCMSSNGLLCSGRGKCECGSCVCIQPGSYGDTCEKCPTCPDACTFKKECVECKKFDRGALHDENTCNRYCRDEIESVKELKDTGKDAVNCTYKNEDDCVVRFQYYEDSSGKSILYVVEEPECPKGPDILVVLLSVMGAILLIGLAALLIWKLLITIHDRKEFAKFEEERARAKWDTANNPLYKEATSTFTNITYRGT

Row | Compound | pIC50
1 | CC(CCc1ccc(OCCC(NC(=O)OCc2ccccc2)C(=O)O)cc1)=NNC1=NCCN1 (mixture of isomers) [ex 1, O-[4-[3-[(4,5-Dihydro-1H-imidazol-2-yl)hydrazono]butyl]-phenyl]-N-[(phenylmethoxy)carbonyl]-homoserine.] | 6.82
2 | CC(CCc1ccc(OCCC(NC(=O)OCc2ccccc2)C(=O)O)cc1)=NNC(=N)N (mixture of isomers) [ex 2, O-[4-[3-[(Aminoiminomethyl)hydrazono]butyl]phenyl]-N-[(phenylmethoxy)carbonyl]-homoserine] | 5.87
3 | N=C(N)NN=CCCc1ccc(OCCC(NC(=O)OCc2ccccc2)C(=O)O)cc1 (mixture of isomers) [ex 4, O-[4-[3-[(Aminoiminomethyl)hydrazono]propyl]phenyl]-N-[(phenylmethoxy)carbonyl]-homoserine] | 6.35
4 | CC(Cc1ccc(OCCC(NC(=O)OCc2ccccc2)C(=O)O)cc1)=NNC1=NCCN1 (mixture of isomers) [ex 5] | 7.66
5 | O=C(NC(CCOc1ccc(CC/C=N\NC2=NCCN2)cc1)C(=O)O)OCc1ccccc1 (racemic) [ex 3, O-[4-[3-[(4,5-Dihydro-1H-imidazol-2-yl)hydrazono]propyl]-phenyl]-N-[(phenylmethoxy)carbonyl]-homoserine] | 6.96
6 | COc1cc(C/C(C)=N/NC2=NCCN2)ccc1OCCC(NC(=O)OCc1ccccc1)C(=O)O (racemic) [ex 6, O-[4-[2-[(4,5-Dihydro-1H-imidazol-2-yl)hydrazono]propyl]-2-methoxyphenyl]-N-[(phenylmethoxy)carbonyl]-homoserine] | 7.92

Results, then the compound that gave them:

Row | pIC50 | Compound
7 | 5.70 | CC(CCc1cccc(OCCC(NC(=O)OCc2ccccc2)C(=O)O)c1)=NNC1=NCCN1 (mixture of isomers) [ex 9, O-[3-[3-[(4,5-Dihydro-1H-imidazol-2-yl)hydrazono]butyl]-phenyl]-N-[(phenylmethoxy)carbonyl]-homoserine]
8 | 6.45 | CC(Cc1cccc(OCCC(NC(=O)OCc2ccccc2)C(=O)O)c1)=NNC1=NCCN1 (mixture of isomers) [ex 10, O-[3-[2-[(4,5-Dihydro-1H-imidazol-2-yl) hydrazono]propyl]-phenyl]-N-[(phenylmethoxy)carbonyl]-homoserine]
9 | 5.49 | N=C(N)NN=CCCc1cccc(OCCC(NC(=O)OCc2ccccc2)C(=O)O)c1 (mixture of isomers) [ex 11, O-[3-[3-[(Aminoiminomethyl)hydrazono]propyl]phenyl]-N-[(phenylmethoxy)carbonyl]-homoserine]
10 | 7.66 | C/C(Cc1ccc(OCCC(NC(=O)OCc2ccccc2)C(=O)O)c(F)c1)=N\NC1=NCCN1 (racemic) [ex 7, O-[4-[2-[(4,5-Dihydro-1H-imidazol-2-yl)hydrazono]propyl]-2-fluorophenyl]-N-[(phenylmethoxy)carbonyl]-homoserine]
11 | 6.02 | O=C(NC(CCOc1cccc(CC/C=N/NC2=NCCN2)c1)C(=O)O)OCc1ccccc1 (stereo not drawn) [ex 12, O-[3-[3-[(4,5-Dihydro-1H-imidazol-2-yl) hydrazono]propyl]-phenyl]-N-[(phenylmethoxy)carbonyl]-homoserine]
12 | 6.53 | O=C(NC(CCOc1ccc(/C=N/NC2=NCCN2)cc1)C(=O)O)OCc1ccccc1 (stereo not drawn) [ex 13]

From patent US6391904B1, “Iminoguanidine derivatives, preparation method, use as medicines” (Aventis Pharma S.A., priority 1998, dated 2002)
